# Measured values published in US20040001859A1, “Anti-aging dietary supplements” (priority 2002, published 2004).
# Test system: MDA (lipid peroxidation) in blood
# Test: MDA rat model assay (blood MDA, aged rats)
# Assay type: in vivo, wistar rats
# Description: A total of forty 3.5 year old wistar rats were divided into four groups, each containing 10 rats. Groups A, B, C and VE were treated with the activated yeast composition, the control yeast composition, saline and Vitamin E, respectively. Eight 8 month old wistar rats were also selected for group D, which were used as a junior control group.
# Groups A, B and VE were administered daily 3 ml/kg (body weight) of the activated yeast composition, 3 ml/kg of the control yeast composition and 0.25 mg/kg of Vitamin E, respectively. Groups C and D were both treated with 3 ml/kg of saline daily. After three months of treatment, blood samples were taken from the heart of the rats and placed in a test tube with heparin. The test tube was then incubated at 37° C. for 10 minutes and centrifuged at 2500 rpm for 10 minutes. 4 ml of sulfuric acid and 0.5 ml of phosphotungstic acid were added to the serum and left at room temperature for 5 minutes after mixing. The mixture was then centrifuged at 3000 rpm for 10 minutes. 2 ml of sulfuric acid and 0.3 ml of phosphotungstic acid were added to the precipitate. Finally, the mixture was used to determine the MDA concentration as described previously.
smiles,measurement,setting,value
"Cc1c(C)c2c(c(C)c1O)CC[C@@](C)(CCC[C@H](C)CCC[C@H](C)CCCC(C)C)O2 [VE, Vitamin E]",MDA,"3.5 year old rats, blood from heart after three months of daily treatment, yeast compositions 3 ml/kg, Vitamin E 0.25 mg/kg",4.36 ± 0.78 µM
same,lipid peroxidation compared to control yeast composition or saline,"aged rats, three months, in words",reduced lipid peroxidation
